pEC50, pIC50: −log10 of the molar value. No end group written: not given here.

The target in the experiment is T1, VEGFR2 and VLA-4 (Homo sapiens, UniProt P05556+P13612+P35968).
T1 construct: the α4-integrin (VLA-4), which is expressed on myeloma cells; endogenous in cells; host or cells: CAG human myeloma cells (HPSE^low / HPSE^high) plated on fibronectin
Briefly: Activation / inhibition of Sdc1-mediated coupling of VEGFR2 to VLA-4 (FIGS. 6A-H). In kind it is cell-based. The procedure:
FIGS. 6A-G. Peptides derived from the active site in Sdc1 activate or inhibit adhesion and invasion. (FIG. 6A) Transwell migration assays towards FN (for 16 hrs) were performed for HPSE low or high cells in the presence of 0, 0.3, 3, and 30 μM of S1ED^210-240. Cells migrating to the bottom side of the filter were counted from five random images for each treatment. (FIG. 6B) The sequence of S1ED210-240 is shown (SEQ ID NO: 3), as well as […] truncation mutants of the peptide (SEQ ID NOs: 5, 2, 4 and 7). Amino acids shown in red appear necessary for the spreading and invasive activity. (FIG. 6C) Images of HPSE^low and HPSE^high cells plated on FN for 2 hr. (FIG. 6D) HPSE^low cells were treated with 0, 0.3, 3, 10 and 30 μM of S1ED^210-236, S1ED^210-233, or S1ED^214-240, plated on FN for 2 hr, fixed and stained with fluorescent phalloidin. Cells from five random images were quantified for cell attachment and cell spreading. (FIG. 6E) HPSE^high cells were treated with 0, 3, 10, and 30 μM of S1ED^210-236, S1ED^210-233, and S1ED^214-240, plated on FN for 2 hr, then fixed, imaged and quantified as in FIG. 6D. (FIG. 6F) Transwell migration assays towards FN (for 16 hr) were performed for HPSE^low or HPSE^high cells in the presence of 30 μM of S1ED^210-236, S1ED^210-233, S1ED^214-240 and Vandetanib. (FIG. 6G) HPSE^low cell lysates were incubated overnight with glutathione beads coated with GST or GST-S1ED in the absence or presence of 30 μM of S1ED^210-236, S1ED^210-233, and S1ED^214-240. Capture of VLA-4 or VEGFR2 was detected by immunoblotting. Sequences in FIG. 6B are 210-240 (SEQ ID NO: 3), 210-236 (SEQ ID NO: 2), 210-233 (SEQ ID NO: 4), 214-240 (SEQ ID NO: 5) and 214-236 (SEQ ID NO: 7).
It is envisioned that a peptide that contains binding sites for both VEGFR2 and VLA-4, such as 210-236, has the capacity to bridge both receptors and link them together. This activates signaling that the cells use for migration and invasion. […]

T1 sequence (P35968 20-1356): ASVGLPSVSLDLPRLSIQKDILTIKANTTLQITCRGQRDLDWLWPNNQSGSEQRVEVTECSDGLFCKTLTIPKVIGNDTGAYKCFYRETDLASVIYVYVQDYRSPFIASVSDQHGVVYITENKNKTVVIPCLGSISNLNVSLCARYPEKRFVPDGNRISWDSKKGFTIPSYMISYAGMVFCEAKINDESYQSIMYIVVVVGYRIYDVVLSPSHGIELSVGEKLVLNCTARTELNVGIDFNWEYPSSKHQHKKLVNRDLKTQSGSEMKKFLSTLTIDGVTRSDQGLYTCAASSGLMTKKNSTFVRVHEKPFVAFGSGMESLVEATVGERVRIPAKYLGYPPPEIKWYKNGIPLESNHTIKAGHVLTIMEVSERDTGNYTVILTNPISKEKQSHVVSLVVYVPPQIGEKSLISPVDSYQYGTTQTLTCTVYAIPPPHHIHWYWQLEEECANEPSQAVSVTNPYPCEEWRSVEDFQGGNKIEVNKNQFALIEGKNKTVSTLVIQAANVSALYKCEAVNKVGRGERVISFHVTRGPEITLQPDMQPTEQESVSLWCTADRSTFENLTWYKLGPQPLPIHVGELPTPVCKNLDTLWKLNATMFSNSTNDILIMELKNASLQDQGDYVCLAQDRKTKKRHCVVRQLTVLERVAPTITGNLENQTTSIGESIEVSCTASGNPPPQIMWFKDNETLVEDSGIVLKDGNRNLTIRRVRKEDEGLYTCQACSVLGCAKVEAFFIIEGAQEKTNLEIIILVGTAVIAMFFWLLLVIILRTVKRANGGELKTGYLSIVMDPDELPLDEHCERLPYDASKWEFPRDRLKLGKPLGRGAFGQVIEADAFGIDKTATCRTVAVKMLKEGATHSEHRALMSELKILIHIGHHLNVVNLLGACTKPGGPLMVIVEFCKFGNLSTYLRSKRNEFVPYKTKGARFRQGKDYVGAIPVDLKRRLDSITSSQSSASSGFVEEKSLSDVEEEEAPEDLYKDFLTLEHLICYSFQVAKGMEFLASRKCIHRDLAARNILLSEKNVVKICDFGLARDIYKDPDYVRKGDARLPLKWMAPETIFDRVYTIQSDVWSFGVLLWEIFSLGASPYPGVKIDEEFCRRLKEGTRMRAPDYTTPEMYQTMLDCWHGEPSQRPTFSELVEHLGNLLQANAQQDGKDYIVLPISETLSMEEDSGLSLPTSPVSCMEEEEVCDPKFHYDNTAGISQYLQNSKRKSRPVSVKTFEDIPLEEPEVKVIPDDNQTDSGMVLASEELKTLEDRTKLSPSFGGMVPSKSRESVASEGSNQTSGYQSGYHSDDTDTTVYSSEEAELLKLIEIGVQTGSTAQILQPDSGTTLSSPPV
T1 sequence (P13612 34-1032): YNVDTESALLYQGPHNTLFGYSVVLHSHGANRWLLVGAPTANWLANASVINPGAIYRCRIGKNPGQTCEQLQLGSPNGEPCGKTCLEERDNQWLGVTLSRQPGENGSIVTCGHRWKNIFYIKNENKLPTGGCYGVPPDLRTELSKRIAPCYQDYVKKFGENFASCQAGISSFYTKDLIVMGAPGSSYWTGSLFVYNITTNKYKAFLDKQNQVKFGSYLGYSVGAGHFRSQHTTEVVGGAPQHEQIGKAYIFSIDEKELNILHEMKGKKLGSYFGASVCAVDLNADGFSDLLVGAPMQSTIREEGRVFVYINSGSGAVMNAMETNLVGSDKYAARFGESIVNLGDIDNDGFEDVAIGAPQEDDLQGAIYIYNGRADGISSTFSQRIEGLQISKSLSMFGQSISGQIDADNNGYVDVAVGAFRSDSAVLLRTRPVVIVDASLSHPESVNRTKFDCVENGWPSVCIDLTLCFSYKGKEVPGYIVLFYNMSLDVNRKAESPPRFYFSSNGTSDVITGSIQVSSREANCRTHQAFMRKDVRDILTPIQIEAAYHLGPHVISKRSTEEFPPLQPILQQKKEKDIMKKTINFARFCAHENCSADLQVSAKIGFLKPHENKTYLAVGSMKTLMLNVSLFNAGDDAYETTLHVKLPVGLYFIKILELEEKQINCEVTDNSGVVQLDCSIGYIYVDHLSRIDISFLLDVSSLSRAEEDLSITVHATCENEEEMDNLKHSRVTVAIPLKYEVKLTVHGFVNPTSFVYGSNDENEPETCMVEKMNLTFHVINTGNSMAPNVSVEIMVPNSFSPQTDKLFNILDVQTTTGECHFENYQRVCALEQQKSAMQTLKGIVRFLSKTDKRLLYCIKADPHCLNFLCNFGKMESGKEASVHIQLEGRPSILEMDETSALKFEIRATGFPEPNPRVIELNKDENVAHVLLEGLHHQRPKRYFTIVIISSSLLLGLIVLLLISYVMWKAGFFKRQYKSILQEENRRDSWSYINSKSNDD
T1 sequence (P05556 21-798): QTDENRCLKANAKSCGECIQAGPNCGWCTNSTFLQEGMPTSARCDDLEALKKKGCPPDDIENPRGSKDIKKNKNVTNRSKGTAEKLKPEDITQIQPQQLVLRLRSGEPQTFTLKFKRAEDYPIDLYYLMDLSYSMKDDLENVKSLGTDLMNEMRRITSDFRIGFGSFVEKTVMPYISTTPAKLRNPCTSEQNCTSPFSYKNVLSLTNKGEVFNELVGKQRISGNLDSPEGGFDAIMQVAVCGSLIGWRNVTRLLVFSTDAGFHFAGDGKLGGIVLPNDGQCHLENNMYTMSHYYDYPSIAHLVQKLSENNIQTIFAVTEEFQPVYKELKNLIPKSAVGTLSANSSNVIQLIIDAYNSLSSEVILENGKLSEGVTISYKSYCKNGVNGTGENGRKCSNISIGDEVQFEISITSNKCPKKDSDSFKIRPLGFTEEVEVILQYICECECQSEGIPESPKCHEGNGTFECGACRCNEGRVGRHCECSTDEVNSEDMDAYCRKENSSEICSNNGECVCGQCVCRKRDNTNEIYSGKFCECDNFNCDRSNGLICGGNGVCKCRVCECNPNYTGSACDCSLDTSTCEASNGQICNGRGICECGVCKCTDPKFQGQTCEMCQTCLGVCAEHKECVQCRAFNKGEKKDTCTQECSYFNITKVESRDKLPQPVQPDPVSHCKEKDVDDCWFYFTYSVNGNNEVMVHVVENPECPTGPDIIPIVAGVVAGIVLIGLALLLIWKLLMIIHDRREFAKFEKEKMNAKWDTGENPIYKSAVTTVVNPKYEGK

“DFTFETSGENTAVVAVEPDRRNQSPVD [S1ED^210-236]”: where the note is “FIGS. 6A-H, read-out: EC50 of bridging VEGFR2 and VLA-4, activating signaling used for migration and invasion”, the pEC50 was 6.52. Further, the pIC50 (read-out: IC50 as inhibitor of the VLA-4/VEGFR2 coupling mechanism) is 5.00.

Values taken from US9878007B2, “Syndecan peptides and polypeptides as inhibitors of vascular endothelial growth factor receptor-2 (VEGFR2) and very late antigen-4 (VLA-4)” (Wisconsin Alumni Research Foundation, priority 2015, dated 2018).
